Assay results as given in patent publication US20050070500A1, “Method of modulating release of saccharides and uses thereof” (priority 2001, published 2005).
Read-outs that look alike come from different tables or passages of the source.

Columns and labels:
[1] = subcutaneous; patient not affected by ACTH or Prednisone; several weeks of treatment; cited from earlier work
[2] = dogs, cited from earlier work
[3] = humans, cited from earlier work
in vivo = conditions: male, beagle, dog
Excerpt: This study was undertaken to determine the safety of Products X and Y, and to determine the pharmacokinetic profiles of Products X, Y, and a commercially available oral glucosamine formulation (Glucosamine) following a single oral and intravenous administration to beagle dogs. The pharmacokinetic profiles were examined for indications of sustained or slow release of glucosamine by Products X and Y.
A total of nine (9) male Beagle dogs were used during this study. The animals were assigned to three treatment groups of 3 animals/group. Group 1 received low dose Products X, Y and Glucosamine by oral administration on Days 1, 8 and 15, respectively. Group 2 animals received high dose Products X and Y by oral administration on Days 1 and 8, respectively, and Group 3 animals received low dose Products X and Y by intravenous injection on Days 1 and 8, respectively. Low and high dose animals were administered nominal dose levels of 21.4 mg/kg and 214 mg/kg, respectively. These levels approximated 1× and 10× the standard daily oral glucosamine consumption (1500 mg) for an average human (70 kg standard body weight). The commercial glucosamine was assumed to contain 100% active ingredient.
The following parameters were recorded throughout the study: mortality, clinical signs, body weight and clinical pathology (hematology, coagulation and clinical chemistry). Serial blood samples were collected from all animals for pharmacokinetic profiling following each dosing.
Samples were collected via the jugular vein, at: 0 (pre-dose), 15, 30, 60, 120 minutes post-dose. A 5 minute post-dose sample was included for Group 3.

Row | SMILES | symptoms of Crohn's Disease [1] | glucosamine found in urine ([2]; after 144 hours) | gastrointestinal absorption [2] | glucosamine found in urine ([3]; after 144 hours) [%] | gastrointestinal absorption [3] [%] | time of peak serum glucosamine level post-dose (in vivo) [min] | AUC (in vivo; po, 21.4 mg/kg) [ng·h/mL] | concentration at 120 minutes (in vivo; po, 21.4 mg/kg) [ng/mL] | ratio of glucosamine delivered into the serum (oral glucosamine = 100) (in vivo; po, 21.4 mg/kg) | group mean serum glucosamine level at 120 minutes post-dose (in vivo; po, 21.4 mg/kg, 120 minutes) [ng/mL]
1 | Cl.N[C@H]1C(O)O[C@H](CO)[C@@H](O)[C@@H]1O (stereo partly drawn) [D-glucosamine-HCl] | symptoms stopped |  |  |  |  |  |  |  |  | 
2 | N[C@H]1C(O)O[C@H](CO)[C@@H](O)[C@@H]1O (stereo partly shown) [Glucosamine, glucosamine] |  | about 10% | about 87% | ~11 | ~90 | 60 | 1650 | 533 ± 188 | 100 | 533
